Consider 3 compounds from BindingDB's records for doi:10.1016/j.bmcl.2004.05.028 (Gsk, 2004).

In general, EC50 refers to the concentration at which the effect is half-maximal.

Molecules are shown by their SMILES.

Chain of Transient receptor potential cation channel subfamily V member 1 (Q8NER1 whole entry): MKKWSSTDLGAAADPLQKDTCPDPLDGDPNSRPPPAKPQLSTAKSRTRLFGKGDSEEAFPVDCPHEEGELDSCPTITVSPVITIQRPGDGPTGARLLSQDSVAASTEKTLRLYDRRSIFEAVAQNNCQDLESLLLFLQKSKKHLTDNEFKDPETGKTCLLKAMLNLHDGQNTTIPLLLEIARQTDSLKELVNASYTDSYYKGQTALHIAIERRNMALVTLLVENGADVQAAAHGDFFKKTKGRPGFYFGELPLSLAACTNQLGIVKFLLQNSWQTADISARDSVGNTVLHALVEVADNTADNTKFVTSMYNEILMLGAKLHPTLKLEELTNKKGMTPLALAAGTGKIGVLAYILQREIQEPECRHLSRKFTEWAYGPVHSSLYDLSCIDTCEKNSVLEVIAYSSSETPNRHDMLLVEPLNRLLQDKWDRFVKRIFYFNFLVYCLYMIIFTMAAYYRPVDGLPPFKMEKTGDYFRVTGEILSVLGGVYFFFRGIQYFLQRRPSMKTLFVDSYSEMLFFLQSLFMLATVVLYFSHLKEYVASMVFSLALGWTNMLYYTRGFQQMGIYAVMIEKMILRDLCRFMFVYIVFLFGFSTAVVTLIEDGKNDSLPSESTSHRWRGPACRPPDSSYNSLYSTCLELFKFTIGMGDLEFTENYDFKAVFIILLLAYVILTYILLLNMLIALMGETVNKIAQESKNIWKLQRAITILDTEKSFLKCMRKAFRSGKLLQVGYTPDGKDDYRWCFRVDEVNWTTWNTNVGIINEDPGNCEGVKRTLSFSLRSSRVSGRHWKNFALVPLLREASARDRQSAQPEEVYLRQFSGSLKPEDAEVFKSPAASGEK

This experiment addresses Transient receptor potential cation channel subfamily V member 1 (Homo sapiens, UniProt Q8NER1). Nature of the experiment: FLIPR (Fluorescence Imaging Plate Reader)-Based Ca2+ Assay. As to conditions: pH 7.2; 25 °C. As for the experimental part: One day before the assay was performed, human TRPV1 expressed in 1321N1 astrocytoma cells were plated onto 96-well assay plates and grown until 2.5 h before the assay, and the cells were loaded with the Ca2+ reporter dye Fluo3-AM for 2 h at room temperature. After this, the cells were washed, and continuously being incubated for 30 min with medium containing test compounds at a range of different concentrations.
Regarding `CCN(CCNC(=O)Nc1ccccc1Br)c1cccc(C)c1` [3-(2-bromophenyl)-1-{2-[ethyl(3-methylphenyl)amino]ethyl}urea], it took 16 nM to reach a half-maximal effect (EC50).
The same measure for `COc1cccc(NC(=O)/C=C/c2ccc(Cl)cc2)c1` [(2E)-3-(4-chlorophenyl)-N-(3-methoxyphenyl)prop-2-enamide]: 20 nM.
For `Oc1cc2c(cc1O)CN(C(=S)NCCc1ccc(Cl)cc1)CCC2` [N-[2-(4-chlorophenyl)ethyl]-7,8-dihydroxy-2,3,4,5-tetrahydro-1H-2-benzazepine-2-carbothioamide] the value was 32 nM.
